These results are taken from patent US9156822B2, “Functionally selective ligands of dopamine D2 receptors” (The University of North Carolina at Chapel Hill, priority 2010, dated 2015).

The target of data set [1] is T1, D2 receptors (Homo sapiens (Human), UniProt P14416). The data set can be described thus: CHO-D2 radioligand binding assay ([3H]N-methylspiperone competition). The note with it: read-out: D2 Binding Ki ± SEM.
Target sequence in this assay (P14416 whole entry): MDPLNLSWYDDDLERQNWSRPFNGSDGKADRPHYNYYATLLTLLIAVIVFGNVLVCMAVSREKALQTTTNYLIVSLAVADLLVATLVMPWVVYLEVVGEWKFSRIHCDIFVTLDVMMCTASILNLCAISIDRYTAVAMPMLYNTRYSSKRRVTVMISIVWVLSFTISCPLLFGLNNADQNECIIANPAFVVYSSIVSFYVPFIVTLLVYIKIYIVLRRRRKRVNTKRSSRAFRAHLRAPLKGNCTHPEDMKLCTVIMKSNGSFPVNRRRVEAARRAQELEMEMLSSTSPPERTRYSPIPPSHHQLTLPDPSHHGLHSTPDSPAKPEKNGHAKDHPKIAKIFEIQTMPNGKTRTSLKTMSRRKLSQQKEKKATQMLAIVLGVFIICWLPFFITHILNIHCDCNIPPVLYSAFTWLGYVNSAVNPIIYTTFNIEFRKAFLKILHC
The next data set concerns the target hD2 receptors (Homo sapiens (Human), UniProt P14416). The data set can be described thus: D2 mediated cAMP GloSensor assay. On cAMP (GloSensor) activity in words (merged EC50/Emax cell): key: neutral: Neutral ligands are either antagonists or are inactive. The format is cell-based. The note with it: for Emax: read-out: cAMP (GloSensor) Emax.
The target in data set [2] is T1, D2 receptors. Briefly: D2 β-arrestin recruitment (Tango) assay. The note with it: for Emax: normalized to quinpirole (100%). Type of data set: cell-based. As for the experimental part:
The next day, cells were plated in white, clear-bottom, 384-well plates (Greiner, 10,000 cells/well, 50 μl/well) in DMEM containing 1% dialyzed fetal bovine serum. […] Data were normalized to vehicle (0%) and quinpirole (100%) controls and regressed using the sigmoidal dose-response function built into GraphPad Prism 4.0.
Target sequence in this assay (P14416 whole entry, looked up): as the sequence (P14416 whole entry) above

Where [3] appears, read: CHO-D2 membranes, [3H]N-methylspiperone.
Setting [4] is: HEK293T, isoproterenol-stimulated cAMP.
The mark [5] stands for this setting: normalized to quinpirole, negative = inverse agonist.
[6] abbreviates: HTLA cells, read-out: β-arrestin (Tango) EC50.

Structures are written as SMILES. Like-named read-outs stand apart in the source and are kept apart here.

Sequence of hD2 receptors (P14416 whole entry): as above

As to `O=C1NCCc2ccc(OCCCN3CCCN(c4cccc(Cl)c4Cl)CC3)cc21` [Compound 5, 7-(3-(4-(2,3-dichlorophenyl)-1,4-diazepan-1-yl)propoxy)-3,4-dihydroisoquinolin-1(2H)-one], the melting point was in the range of 116 to 117 °C. The Ki at D2 receptors [1] (setting [3]) came to 5.7 ± 0.8 nM. In addition, the half-maximal effective concentration (EC50) at hD2 receptors (setting [4]) was found to be 5.6 nM. The Emax on hD2 receptors (setting [5]) is -16%. On D2 receptors [2], the “β-arrestin (Tango) % activ at 1 μM” value came to 13% and the Emax was 47%. For the same compound, on D2 receptors [2] (setting [6]), the EC50 amounted to 8 nM.
Regarding `Clc1cccc(N2CCCN(CCCOc3ccc4scnc4c3)CC2)c1Cl` [Compound 8, 5-(3-(4-(2,3-dichlorophenyl)-1,4-diazepan-1-yl)propoxy)benzo[d]thiazole], the melting point lay in the range of 93 to 94 °C. For the same compound, the Emax at hD2 receptors (setting [5]) is -26%.
`O=c1ccc2ccc(OCCCN3CCCN(c4cccc(Cl)c4Cl)CC3)cc2[nH]1` [Compound 15, 7-(3-(4-(2,3-dichlorophenyl)-1,4-diazepan-1-yl)propoxy)quinolin-2(1H)-one] showed a melting point of 117 to 118 °C. For the same compound, the Ki at D2 receptors [1] (setting [3]) was 3.4 ± 0.2 nM. At hD2 receptors (setting [4]), this compound registered a concentration for a half-maximal effect (EC50) of 13 nM. Moreover, the Emax on hD2 receptors (setting [5]) amounted to 64%. For the same compound, the EC50 at D2 receptors [2] (setting [6]) turned out to be 2.2 nM. Further, at D2 receptors [2], the Emax came out at 84%.
On to `O=c1[nH]c2ccc(OCCCN3CCCN(c4cccc(Cl)c4Cl)CC3)cc2[nH]1` [Compound 19, 5-(3-(4-(2,3-dichlorophenyl)-1,4-diazepan-1-yl)propoxy)-1H-benzo[c]imidazol-2(3H)-one], for which the melting point was 148 to 150 °C. Besides, on D2 receptors [1] (setting [3]), the Ki was found to be 4.5 ± 0.2 nM. In addition, the “cAMP (GloSensor) activity in words (merged EC50/Emax cell)” value at hD2 receptors is listed as “neutral”. In addition, the concentration for a half-maximal effect (EC50) on D2 receptors [2] (setting [6]) is 8.5 nM. Further, the Emax on D2 receptors [2] was 48%.
The compound `Clc1cccc(N2CCN(CCCOc3ccc4cn[nH]c4c3)CC2)c1Cl` [Compound 20, 6-(3-(4-(2,3-dichlorophenyl)piperazin-1-yl)propoxy)-1H-indazole] registered a melting point of 159 to 161 °C. Also, the inhibition constant Ki at D2 receptors [1] (setting [3]) amounted to 104 ± 13 nM. This compound also returned a 50% effective concentration (EC50) at hD2 receptors (setting [4]) of 9.7 nM. Also, on hD2 receptors (setting [5]), the Emax was -22%. Also, on D2 receptors [2], the “β-arrestin (Tango) % activ at 1 μM” value is recorded as 45% and the Emax amounted to 90%. For the same compound, at D2 receptors [2] (setting [6]), the concentration for a half-maximal effect (EC50) amounted to 59 nM.
`Clc1cccc(C2CCN(CCCCOc3ccc4scnc4c3)CC2)c1Cl` [Compound 21, 5-(4-(4-(2,3-dichlorophenyl)piperidin-1-yl)butoxy)benzo[d]thiazole]: the melting point is 79 to 81 °C. Also, the inhibition constant (Ki) on D2 receptors [1] was 42 ± 4 nM. Besides, on hD2 receptors, the EC50 was 21 nM and the Emax is -27%. On D2 receptors [2], the “β-arrestin (Tango) % activ at 1 μM” value was determined as 26% and the Emax turned out to be 81%. For the same compound, on D2 receptors [2] (setting [6]), the concentration giving a half-maximal response (EC50) turned out to be 82 nM.
In turn, `Clc1cccc(N2CCN(CCCOc3ccc4scnc4c3)CC2)c1Cl` [Compound 23, 5-(3-(4-(2,3-dichlorophenyl)piperazin-1-yl)propoxy)benzo[d]thiazole] had a melting point of 127 to 129 °C. Moreover, at D2 receptors [1] (setting [3]), the Ki worked out at 30 ± 5 nM. At hD2 receptors (setting [4]), a half-maximal effect (EC50) was put at 9.8 nM. In addition, the Emax at hD2 receptors (setting [5]) is -16%. Moreover, on D2 receptors [2], the “β-arrestin (Tango) % activ at 1 μM” value is 48% and the Emax stood at 91%. The half-maximal effective concentration (EC50) on D2 receptors [2] (setting [6]) was found to be 107 nM.
In turn, `O=C1CCc2ccc(Oc3cccc(CN4CCN(c5cccc(Cl)c5Cl)CC4)c3)cc2N1` [Compound 30, 7-(3-((4-(2,3-dichlorophenyl)piperazin-1-yl)methyl)phenoxy)-3,4-dihydro quinolin-2(1H)-one] displayed a melting point of 182 to 183 °C. Moreover, the inhibition constant (Ki) on D2 receptors [1] (setting [3]) came out at 113 ± 18 nM. On hD2 receptors, the “cAMP (GloSensor) activity in words (merged EC50/Emax cell)” value is reported as “neutral”. For the same compound, at D2 receptors [2], the EC50 was determined as 297 nM, the “β-arrestin (Tango) % activ at 1 μM” value is 9% and the Emax was 58%.

Broadly, the Ki is a measure of affinity in units of concentration, obtained from inhibition or displacement. One may read the EC50 as the concentration at which the effect is half-maximal. As a reminder, the Emax is the size of the effect at its maximum, as opposed to the concentration needed. For orientation: melting point means the temperature, or range, at which the solid turns liquid.
